In the NIST ThermoML archive (doi:10.1016/j.jct.2008.07.017):
Numbers after ± are expanded uncertainties.

How the values were obtained:
[1] = Crystal 2; DTA
[2] = Solid-liquid equilibrium temperature

CCCCCCCCCCCCCCCCCCCCCCCCCCCCCC [triacontane]
Details | Triple point temperature [K]
[1] | 361.27 ± 0.41

Solid-liquid equilibrium temperature [K], [2]
Details | 10000 kPa | 25000 kPa | 50000 kPa | 75000 kPa | 100000 kPa | 125000 kPa | 150000 kPa
Crystal 1, DTA | 341.68 ± 0.31 | 345.34 ± 0.34 | 351.45 ± 0.37 | 357 ± 0.39 | 362.54 ± 0.41 | 367.76 ± 0.42 | 372.97 ± 0.44
Crystal 2, DTA | 338.9 ± 0.31 | 343.03 ± 0.34 | 349.8 ± 0.37 | 356.07 ± 0.39 | – | – | –

CCCCCCCCCCCCCCCCCCCCCCCC [tetracosane]
Details | Triple point temperature [K]
[1] | 339.59 ± 0.41

Solid-liquid equilibrium temperature [K], [2]
Details | 10000 kPa | 25000 kPa | 40000 kPa | 50000 kPa | 100000 kPa | 125000 kPa | 150000 kPa
Crystal 1, DTA | 326.74 ± 0.31 | 330.4 ± 0.33 | 333.86 ± 0.35 | 336.12 ± 0.36 | 346.93 ± 0.4 | 352.26 ± 0.41 | 357.28 ± 0.42
Crystal 2, DTA | 324.24 ± 0.3 | 328.4 ± 0.33 | 332.37 ± 0.35 | 334.94 ± 0.36 | – | – | –

CCCCCCCCCCCCCCCCCCCC [eicosane]
[2], Crystal, DTA
Details | Solid-liquid equilibrium temperature [K]
33520 kPa | 318.15 ± 0.33
55080 kPa | 323.15 ± 0.35
76800 kPa | 328.15 ± 0.37
99090 kPa | 333.15 ± 0.38
150000 kPa | 344.91 ± 0.41

CCCCCCCCCCCCCCCCCCCCCCCCCCCCCCCCCCCCCCCC [tetracontane]
Details | Triple point temperature [K]
[1] | 376.03 ± 0.41

Solid-liquid equilibrium temperature [K], [2]
Details | 10000 kPa | 35758 kPa | 48436 kPa | 50000 kPa | 68114 kPa | 73917 kPa | 90000 kPa | 112740 kPa | 130000 kPa
Crystal 1 | 357.34 ± 0.55 | 363.15 ± 0.67 | – | 367.26 ± 0.71 | 371.15 ± 0.75 | – | 376.58 ± 0.8 | 381.15 ± 0.84 | 385.22 ± 0.87
Crystal 2 | 351.37 ± 0.54 | – | 363.15 ± 0.7 | 364.54 ± 0.7 | – | 371.15 ± 0.76 | – | – | –
